Reference: patent US8759261B2, “Method and composition for enhanced hydrocarbons recovery” (Shell Oil Company, priority 2008, dated 2014)

Assay: Solvent addition to improve aqueous solubility of IOS blend in seawater brine
Type: physicochemical
Method: The first attempt to improve the aqueous solubility of these blends was to use small amounts of solvents added to an IOS blend and seawater brine. One percent solvent was added to 3.2% brine solutions (see Table 1 for brine composition) containing a 0.2% blend of 78% IOS 2024 and 22% IOS 2428. This particular surfactant blend had been identified for minimizing the oil-water interfacial tension between the crude oil and brine representative of a North Sea reservoir. Additions of 1% hexylene glycol, 1-hexanol, polyethylene glycol (mw=400) and sodium xylene sulfonate were studied.
A small amount of alcohol ethoxylate (8% relative to the IOS) was added to a second sample of sodium xylene sulfonate.

In the case of polyethylene glycol (mw=400), the “solubilizing of the solid in the IOS blend” value is reported as “solubilizing most but not all of the solid”.

For sodium xylene sulfonate, the “remaining precipitate after addition of nonionic” value (second sample with 1% sodium xylene sulfonate plus alcohol ethoxylate (8% relative to the IOS), 3.2% brine, 0.2% IOS blend) was “eliminated the rest of the precipitate”.
